What was measured:
[1] = Determination of dissociation constants (pKa) by capillary zone electrophoresis; type: physicochemical; details: 25 °C, BGE pH 3.9 to 9.2, mean and standard deviation of four measurements, read-out: pKa (exp.)
Protocol: The dissociation constants (pKa) of studied compounds were determined by means of CE. The measured values and values predicted by chemical software (ACD Percepta ver. 2012, Advanced Chemistry Development, Toronto, ON, Canada; MarvinSketch 6.0.6., ChemAxon Kft., Budapest, Hungary) are shown in Table 1. The correlation coefficients of the experimentally determined values were greater than 0.999 and standard deviation equal or less than 0.02 units (n = 4). The experimental values are in the range 6.35–6.92 and the highest values were recorded for the 1-(2-methoxyphenylpiperazine) derivatives 7b, 8b, 9b. The clinically used β-blockers are usually stronger bases, the values of studied compounds are lower due to the presence of piperazine moiety instead of secondary amine group.
The CE experiments were carried out with an Agilent 3D CE (Agilent Technologies) capillary electrophoresis system equipped with an autosampler, automatic injector, photodiode array detector, and an air cooling unit for the capillary. The instrument control and analysis were performed with 3D-CE ChemStation software (Agilent Technologies). Uncoated fused-silica capillary (Agilent Technologies) of 50 µm internal diameter, total length of 33.0 cm and effective length (to the detector) of 24.5 cm was used. The capillary cassette temperature was maintained at 25 °C with air cooling. Three milligrams of the sample were dissolved in 1 mL of 50% methanol and 10 times diluted with appropriate background electrolyte before analysis. Samples were injected hydrodynamically at 40 mbar pressure for 4.0 s. Running voltage was 15 kV of positive polarity. UV detection was performed at 254 nm. As a marker of electroosmotic flow, mesityl oxide was used. The effective mobilities were recorded for BGE pH values in the range of 3.9 to 9.2 (ionic strength equal to 10 mM), 4 runs at 10 different buffer pH values. The effective mobilities (μeff) were calculated according to Equation (3). (3) μeff=LtotLeff/U(1/tmig−1/tEOF) where tmig is the migration time of the analyte and tEOF is the migration time of a neutral marker compound that is of the same velocity as the electroosmotic flow (EOF). Leff is distance from the injection end of capillary to the detector and Ltot is the total length of the capillary over which the voltage U was applied. SigmaPlot for Windows version 11.0 (Systat Software GmbH, Erkrath, Germany) was employed for the nonlinear regression analysis of µeff/pH relationship having characteristic sigmoidal shape with inflection point indicating pKa value.
The pH measurements were taken with a combination glass electrode (HI 1332B, HANNA Instruments, Woonsocket, RI, USA), using a Thermo Orion 370 PerpHect® pH meter (ThermoFisher Scientific).

[2] = Lipophilicity index (log kw7.4, log kw) by RP-HPLC; type: physicochemical; details: for log kw7.4: RP-HPLC, ZORBAX Extend-C18, pH 7.4, extrapolated to 100% water, mean and standard deviation; for log kw: neutral form, calculated from log kw7.4 and pKa by Equation (2)
Protocol: The lipophilicity indexes log kw7.4 were measured by means of RP-HPLC method. The log kw values were then calculated according to Equation (2) given in Section 3.3. The correlation coefficients were greater than 0.999 with covariance equal or less than 0.03 units (n = 2). The log kw^7.4 values of synthetized compounds were measured by a Dionex Ultimate 3000 (Thermo Fisher Scientific) HPLC system controlled through the Chromeleon® Chromatography Data System (version 7.2). The separation was performed on ZORBAX Extend-C18 (3.5 µm, 3 × 150 mm) column (Agilent Technologies). Mobile phase consists of 0.02 M […] with addition of 0.15% of n-decylamine (pH = 7.4; constituent A) and methanol to which 0.25% of n-octanol was added (constituent B). The total flow rate was 0.4 mL/min, the injection volume was 1 μL, and the column temperature was maintained at 25 °C. The detection wavelength of 254 nm was chosen. One milligram of the sample was dissolved in 1 mL of methanol and diluted to the concentration 0.1 mg/mL with 50% methanol. Retention factors of the compound were measured under isocratic conditions in the range 20:80–50:50 (A:B; v/v), 5 values for each factor in duplicate. Linear regression analysis was performed and log kw7.4 values were calculated according to Equation (1). (1) logk=−Sϕ+logkw where log k represents a logarithm of individual isocratic factor, φ is the organic phase concentration, and S is a constant derived by linear regression analysis. The retention factor corresponding to the neutral form (log kw) was estimated from the apparent log kw7.4 by using Equation (2). (2) logkw=logkwapp+log(1+10^pKa−pH)

Question: For C=CCOCCOc1ccc(C(=O)OCC(O)CN2CCN(c3ccccc3)CC2)cc1.Cl.Cl (stereo not drawn) [7a, 1-{3-[(4-Allyloxyethoxybenzoyl)oxy]-2-hydroxypropyl}-4-phenylpiperazinediium dichloride], which pKa [1] is on record?
Answer: 6.47 ± 0.02

Question: And the melting point?
Answer: 185 to 187 °C

Question: And the “log kw7.4” value [2]?
Answer: 3.97 ± 0.03

Question: And the log kw [2]?
Answer: 4.01 ± 0.09

Question: With C=CCOCCOc1ccc(C(=O)OCC(O)CN2CCN(c3ccccc3OC)CC2)cc1.Cl.Cl (stereo not drawn) [7b, 1-{3-[(4-Allyloxyethoxybenzoyl)oxy]-2-hydroxypropyl}-4-(2-methoxyphenyl)piperazinediium dichloride] as the molecule, how does the pKa [1] read?
Answer: 6.88 ± 0.02

Question: What about the melting point of the same molecule?
Answer: 178 to 180 °C

Question: And the “log kw7.4” value [2]?
Answer: 3.78 ± 0.02

Question: What about the log kw [2] of the same molecule?
Answer: 3.89 ± 0.08

Question: Which pKa [1] does the source give for C=CCOCCOc1ccc(C(=O)OCC(O)CN2CCN(c3ccc(OC)cc3)CC2)cc1.Cl.Cl (stereo not drawn) [7c, 1-{3-[(4-Allyloxyethoxybenzoyl)oxy]-2-hydroxypropyl}-4-(4-methoxyphenyl)piperazinediium dichloride] here?
Answer: 6.49 ± 0.02

Question: What about the melting point of the same molecule?
Answer: 170 to 173 °C

Question: What about the “log kw7.4” value [2] of the same molecule?
Answer: 3.67 ± 0.02

Question: And the log kw [2]?
Answer: 3.71 ± 0.08

Question: Which pKa [1] does the source give for CC(C)OCCOc1ccc(C(=O)OCC(O)CN2CCN(c3ccccc3)CC2)cc1.Cl.Cl (stereo not drawn) [8a, 1-{2-Hydroxy-3-[(4-isopropoxyethoxybenzoyl)oxy]propyl}-4-phenylpiperazinediium dichloride] here?
Answer: 6.49 ± 0.01

Question: And the melting point?
Answer: 200 to 202 °C

Question: What about the “log kw7.4” value [2] of the same molecule?
Answer: 4.21 ± 0.01

Question: And the log kw [2]?
Answer: 4.25 ± 0.05

Question: Which pKa [1] does the source give for COc1ccccc1N1CCN(CC(O)COC(=O)c2ccc(OCCOC(C)C)cc2)CC1.Cl.Cl (stereo not drawn) [8b, 1-{2-Hydroxy-3-[(4-isopropoxyethoxybenzoyl)oxy]propyl}-4-(2-methoxyphenyl)piperazinediium dichloride] here?
Answer: 6.92 ± 0.01

Question: And the melting point?
Answer: 154 to 156 °C

Question: What about the “log kw7.4” value [2] of the same molecule?
Answer: 4.03 ± 0.02

Question: What about the log kw [2] of the same molecule?
Answer: 4.15 ± 0.07

Question: For COc1ccc(N2CCN(CC(O)COC(=O)c3ccc(OCCOC(C)C)cc3)CC2)cc1.Cl.Cl (stereo not drawn) [8c, 1-{2-Hydroxy-3-[(4-isopropoxyethoxybenzoyl)oxy]propyl}-4-(4-methoxyphenyl)piperazinediium dichloride], which pKa [1] is on record?
Answer: 6.35 ± 0.02

Question: What about the melting point of the same molecule?
Answer: 193 to 195 °C

Question: What about the “log kw7.4” value [2] of the same molecule?
Answer: 3.90 ± 0.02

Question: What about the log kw [2] of the same molecule?
Answer: 3.93 ± 0.06

Question: Which results are given for CCCOCCOc1ccc(C(=O)OCC(O)CN2CCN(c3ccccc3)CC2)cc1.Cl.Cl (stereo not drawn) [9a, 1-{2-Hydroxy-3-[(4-propoxyethoxybenzoyl)oxy]propyl}-4-phenylpiperazinediium dichloride]?
Answer: pKa [1]: 6.5 ± 0.02; melting point: 197 to 199 °C; log kw7.4 [2]: 4.29 ± 0.03; log kw [2]: 4.34 ± 0.10

Question: Which pKa [1] does the source give for CCCOCCOc1ccc(C(=O)OCC(O)CN2CCN(c3ccccc3OC)CC2)cc1.Cl.Cl (stereo not drawn) [9b, 1-{2-Hydroxy-3-[(4-propoxyethoxybenzoyl)oxy]propyl}-4-(2-methoxyphenyl)piperazinediium dichloride] here?
Answer: 6.79 ± 0.02

Question: What about the melting point of the same molecule?
Answer: 143 to 146 °C

Question: What about the “log kw7.4” value [2] of the same molecule?
Answer: 4.11 ± 0.02

Question: And the log kw [2]?
Answer: 4.20 ± 0.09

Question: Which pKa [1] does the source give for CCCOCCOc1ccc(C(=O)OCC(O)CN2CCN(c3ccc(OC)cc3)CC2)cc1.Cl.Cl (stereo not drawn) [9c, 1-{2-Hydroxy-3-[(4-propoxyethoxybenzoyl)oxy]propyl}-4-(4-methoxyphenyl)piperazinediium dichloride] here?
Answer: 6.39 ± 0.01

Question: And the melting point?
Answer: 173 to 175 °C

Question: What about the “log kw7.4” value [2] of the same molecule?
Answer: 3.99 ± 0.02

Question: What about the log kw [2] of the same molecule?
Answer: 4.03 ± 0.09

From PMC6273861, “Synthesis and Determination of Physicochemical Properties of New 3-(4-Arylpiperazin-1-yl)-2-hydroxypropyl 4-Alkoxyethoxybenzoates” (Molecules, 2016)
